Measurements reported in US12122781B2, “Hydrates of polymorphs of 6-(1H-indazol-6-yl)-N-(4-morpholinophenyl)-2,3-dihydroimidazo[1,2-a]pyrazin-8-amine bis-mesylate as Syk inhibitors” (Kronos Bio, Inc., priority 2017, dated 2024).

Columns and labels:
Assay type in all cases: physicochemical
[1] = XRPD analysis of the sample after the DVS experiment (solid form stability to humidity); details: after DVS cycle 5% RH to 95% RH and back at 25° C.
Method: X-ray powder diffraction (XRPD) analysis was conducted on a diffractometer (PANalytical XPERT-PRO, PANalytical B. V., Almelo, Netherlands) using copper radiation (Cu Kα, λ=1.541874). Samples were spread evenly on a zero background sample plate. The generator was operated at a voltage of 45 kV and amperage of 40 mA. Slits were Soller 0.02 rad, antiscatter 1.0°, and divergence. Scans were performed from 2 to 40° 2θ with a 0.0167 step size. Data analysis was performed using X′Pert Data Viewer V1.2d (PANalytical B. V., Almelo, Netherlands).
(§1) Hygroscopicity was studied using dynamic vapor sorption (DVS, TA Q5000 SA, TA Instruments, New Castle, DE or DVS, DVS Intrinsic, Surface Measurement Systems, London, UK). A sample (2-20 mg) was placed in an aluminum DVS pan and loaded on the sample side of the twin pan balance. The water sorption and desorption were studied as a function of relative humidity (RH) at 25° C. In 10% RH increments, the relative humidity was increased from 5% RH to 95% RH and then decreased back to 5%. […] Data analysis was performed using Universal Analysis 2000 Version 4.7A (TA Instruments, New Castle, DE) for TA DVS runs and Microsoft Excel for SMS DVS runs.

[2] = Hygroscopicity by dynamic vapor sorption (DVS); details: up to 95% RH at 25° C.; bis-mesylate
Method: as §1

[3] = Solid form stability at ambient conditions; details: before KF could be run

solid form found by XRPD after the DVS experiment [1]	water absorbed (dynamic vapor sorption) [2]	stability of the polymorphic form at ambient conditions [3]	SMILES
converted to Form VII			C1=C(c2ccc3cn[nH]c3c2)N=C(Nc2ccc(N3CCOCC3)cc2)C2=NCCN12.CS(=O)(=O)O.CS(=O)(=O)O [Form XVIII, 6-(1H-indazol-6-yl)-N-(4-morpholinophenyl)-2,3-dihydroimidazo[1,2-a]pyrazin-8-amine bis-mesylate]
converted to Form VII	about 28 wt. %		C1=C(c2ccc3cn[nH]c3c2)N=C(Nc2ccc(N3CCOCC3)cc2)C2=NCCN12.CS(=O)(=O)O.CS(=O)(=O)O [Form XIX, 6-(1H-indazol-6-yl)-N-(4-morpholinophenyl)-2,3-dihydroimidazo[1,2-a]pyrazin-8-amine bis-mesylate]
converted to Form VII	about 30 wt. %		C1=C(c2ccc3cn[nH]c3c2)N=C(Nc2ccc(N3CCOCC3)cc2)C2=NCCN12.CS(=O)(=O)O.CS(=O)(=O)O [Form II, 6-(1H-indazol-6-yl)-N-(4-morpholinophenyl)-2,3-dihydroimidazo[1,2-a]pyrazin-8-amine bis-mesylate]
converted to Form VII	~28 wt. %		C1=C(c2ccc3cn[nH]c3c2)N=C(Nc2ccc(N3CCOCC3)cc2)C2=NCCN12.CS(=O)(=O)O.CS(=O)(=O)O [Form XVI, 6-(1H-indazol-6-yl)-N-(4-morpholinophenyl)-2,3-dihydroimidazo[1,2-a]pyrazin-8-amine bis-mesylate]
converted to Form VII	about 38 wt. %		C1=C(c2ccc3cn[nH]c3c2)N=C(Nc2ccc(N3CCOCC3)cc2)C2=NCCN12.CS(=O)(=O)O.CS(=O)(=O)O [Amorphous form, 6-(1H-indazol-6-yl)-N-(4-morpholinophenyl)-2,3-dihydroimidazo[1,2-a]pyrazin-8-amine bis-mesylate]
converted to Form VII	~25 wt. %	unstable at ambient conditions	C1=C(c2ccc3cn[nH]c3c2)N=C(Nc2ccc(N3CCOCC3)cc2)C2=NCCN12.CS(=O)(=O)O.CS(=O)(=O)O [Form XIII, 6-(1H-indazol-6-yl)-N-(4-morpholinophenyl)-2,3-dihydroimidazo[1,2-a]pyrazin-8-amine bis-mesylate]
converted to Form VII	about 35 wt. %		C1=C(c2ccc3cn[nH]c3c2)N=C(Nc2ccc(N3CCOCC3)cc2)C2=NCCN12.CS(=O)(=O)O.CS(=O)(=O)O [Form XIV, 6-(1H-indazol-6-yl)-N-(4-morpholinophenyl)-2,3-dihydroimidazo[1,2-a]pyrazin-8-amine bis-mesylate]
converted to Form VII	about 30 wt. %		C1=C(c2ccc3cn[nH]c3c2)N=C(Nc2ccc(N3CCOCC3)cc2)C2=NCCN12.CS(=O)(=O)O.CS(=O)(=O)O [Form I, 6-(1H-indazol-6-yl)-N-(4-morpholinophenyl)-2,3-dihydroimidazo[1,2-a]pyrazin-8-amine bis-mesylate]
converted to Form VII	~17 wt. %		C1=C(c2ccc3cn[nH]c3c2)N=C(Nc2ccc(N3CCOCC3)cc2)C2=NCCN12.CS(=O)(=O)O.CS(=O)(=O)O [Form VI, 6-(1H-indazol-6-yl)-N-(4-morpholinophenyl)-2,3-dihydroimidazo[1,2-a]pyrazin-8-amine bis-mesylate]
converted to Form VII	~23 wt. %		C1=C(c2ccc3cn[nH]c3c2)N=C(Nc2ccc(N3CCOCC3)cc2)C2=NCCN12.CS(=O)(=O)O.CS(=O)(=O)O [Form XV, 6-(1H-indazol-6-yl)-N-(4-morpholinophenyl)-2,3-dihydroimidazo[1,2-a]pyrazin-8-amine bis-mesylate]
